“And” between values parts separate entries of the source, which are not always exact repeats. Identical values can stand only once. “Also recorded” adds a separate entry of the source.
Experiments:
[1] = system: intracellular amastigote form of L. donovani parasite in differentiated THP1 cells; experiment: Parasite rescue and transformation assay (macrophage internalized amastigotes); assay type: cell-based, Leishmania donovani; conditions: for selectivity index (SI): IC50 of cytotoxicity divided by IC50 in parasite rescue and transformation assay; for IC50: Leishmania donovani, THP-1, parasite rescue and transformation assay, read-out: IC50 anti-leishmanial activity, intracellular amastigote
Experimental: This assay is based on the previously published protocol by Jain et al. (35). A 3-day old culture of THP1 cells in the exponential phase was diluted with RPMI medium to 2.5×10^5 cells/ml. PMA was added to final a concentration of 25 ng/ml. PMA treated culture was dispensed in clear flat bottom culture plates and incubated overnight at 37° C. in a 5% CO2 incubator. The plates with differentiated THP1 Cells were washed with serum-free medium with the help of Molecular device AquaMax 4000. A 5-6-day old L. donovani promastigote culture diluted to 5×10^6 cells/ml was added over differentiated THP1 cells. The Macrophage cells to parasite ratio for infection was 1:10. The plates were incubated for 24 hrs. After 24 hrs., the plates were again washed with the help of AquaMax 4000 and the serum-free medium was replaced by a medium with diluted test samples. The plates were placed again in a CO2 incubator at […] for 48 hrs. After 48 hrs., the macrophage amastigote plates were washed and treated with 0.05% SDS for 30 secs., and diluted SDS medium was immediately replaced with complete RPMI medium. Plates were incubated for amastigote to promastigote transformation, and promastigote growth at […] for 48 hrs. After 48 hrs., 5 μl of alamar blue was added to each well of macrophage amastigote assay plates, and the plates were incubated further for 24 hrs. Standard fluorescence was measured on a Fluostar Galaxy fluorometer (BMG LabTechnologies) at 544 nm ex, 590 nm em. Xlfit 5.3.1 software has generated all dose response curves.

[2] = THP1 cytotoxicity assay (alamar blue); assay type: cell-based; conditions: human, PMA-differentiated THP1 cells, 48 hrs + 24 hrs alamar blue
Experimental: THP-1 cells (human monocytic leukemia cells) were made available by the American Type Culture Collection (ATCC) and were maintained in RPMI 1640 media (Life-Technologies) supplemented with Sodium Pyruvate, Glutamine, HEPES (Life-81 Technologies) and 10% heat-inactivated FBS (Sigma). The culture was maintained at 37° C. in 5% CO2 incubator. THP1 cells Subculture was done every 3-4 days. Promastigote forms of Leishmania donovani (S1 strain) was grown in RPMI 1640 medium at pH 7.4 supplemented with 10% fetal bovine serum. The culture was maintained at 26° C. by incubator. Subculture was done every 3-4 days.
A 3-day old culture of THP1 cells in the exponential phase was diluted with RPMI medium to 2.5×10^5 cells/ml. PMA was added to final a concentration of 25 ng/ml. PMA treated culture was dispensed in clear flat bottom culture plates and incubated overnight at 37° C. in a 5% CO2 incubator. The plates with differentiated THP1 cells were washed with serum-free medium with the help of Molecular device AquaMax 4000 and the serum-free medium was replaced by a medium with diluted test samples. The plates were placed again in a CO2 incubator at […] for 48 hrs. […] Standard fluorescence was measured on a Fluostar Galaxy fluorometer (BMG LabTechnologies) at 544 nm ex, 590 nm em. […]

[3] = system: L. donovani promastigotes; experiment: Annexin V binding apoptosis assay (Annexin V/Propidium Iodide flow cytometry); assay type: cell-based, Leishmania donovani; conditions: for apoptotic effect on promastigotes: dimers 14 μM, artemisinin 35 μM, 24 to 72 hrs
Source text: Apoptosis, also known as programmed cell death, is a physiological process of removal of unwanted cells (37). In one of the earlier events, the process of apoptosis includes translocation of membrane phosphatidylserine from the inner side of the cell membrane to the surface (38). Annexin V is a Ca^++ dependent phospholipid-binding protein which has a high affinity for phosphatidylserine (39). So FITC-labeled Annexin V can be used for the analysis of exposed PS using a flow cytometer (40). Apoptosis analysis was done by flow cytometry using Annexin V/Propidium Iodide staining method. […] 1×10^7 promastigote cells/ml were treated with artemisinin (35 μM), dimer Morpholine (14 μM) and dimer GABA (14 μM). Aliquots were withdrawn at different time intervals and stained with FITC-Annexin V and Propidium Iodide. The cell was analyzed by flow-cytometry. […] 50,000 in a gated event were run in a FL2 (Propidium Iodide)/FL1 (Annexin FITC) and analyzed by quadrangle plot.

[4] = system: promastigote form of L. donovani parasite; experiment: Leishmania donovani promastigote assay (alamar blue); assay type: cell-based; conditions: read-out: IC50 anti-leishmanial activity, promastigote
Experimental: THP-1 cells (human monocytic leukemia cells) were made available by the American Type Culture Collection (ATCC) and were maintained in RPMI 1640 media (Life-Technologies) supplemented with Sodium Pyruvate, Glutamine, HEPES (Life-81 Technologies) and 10% heat-inactivated FBS (Sigma). The culture was maintained at 37° C. in 5% CO2 incubator. THP1 cells Subculture was done every 3-4 days. Promastigote forms of Leishmania donovani (S1 strain) was grown in RPMI 1640 medium at pH 7.4 supplemented with 10% fetal bovine serum. The culture was maintained at 26° C. by incubator. Subculture was done every 3-4 days. The promastigote assay was based on alamar blue base growth analysis (33). A 3-4 day old promastigote culture in the exponential phase was diluted with RPMI 1640 medium, to 1×10^6 cells/ml. Artemisinin dimer samples were diluted to stock concentration of 2 mg/ml. Artemisinin dimer samples were dispensed in culture plates and diluted with a promastigote culture so the final highest concentration of samples was 10 μg/ml, and highest concentration of parent artemisinin was 40 μg/ml. The culture with the highest concentration of each artemisinin dimer was serially diluted in 1:5 ratio to 6 different concentrations. All artemisinin dimers were tested in triplicate. […] Standard fluorescence was measured on a Fluostar Galaxy fluorometer (BMG LabTechnologies) at 544 nm ex, 590 nm em. […]

IC50 [1]	SMILES	selectivity index (SI) [1]	IC50 at 48 h [2]	apoptotic effect on promastigotes [3]	further results
0.545 µM	N=C(N)c1ccc(OCCCCCOc2ccc(C(=N)N)cc2)cc1 [pentamidine]	63			
0.062 µM	C[C@@H]1[C@H](O)[C@@H](C)/C=C/C=C/C=C/C=C/C=C/C=C/C=C/[C@H](O[C@@H]2O[C@H](C)[C@@H](O)[C@H](N)[C@@H]2O)C[C@@H]2O[C@](O)(C[C@@H](O)C[C@@H](O)[C@H](O)CC[C@@H](O)C[C@@H](O)CC(=O)O[C@H]1C)C[C@H](O)[C@H]2C(=O)O [amphotericin, amphotericin B]	201			
> 35.4 µM	C[C@@H]1CC[C@H]2[C@@H](C)C(=O)O[C@@H]3O[C@@]4(C)CC[C@@H]1[C@]32OO4 [artemisinin]			does not have; also recorded: does not have leishmanicidal or apoptotic effect	anti-leishmanial (leishmanicidal) effect ([3]; artemisinin at 35 μM): does not have an anti-leishmanial effect; also recorded: does not have leishmanicidal or apoptotic effect; IC50 [4]: 99.2 µM

The next lines start with the molecule.

SMILES	IC50 [1]	selectivity index (SI) [1]	IC50 at 48 h [2]	apoptotic effect on promastigotes [3]	further results
C[C@H]1[C@@H](OC/C(CO[C@H]2O[C@@H]3O[C@]4(C)CC[C@H]5[C@H](C)CC[C@@H]([C@H]2C)[C@@]35OO4)=N\O)O[C@@H]2OC3(C)CC[C@H]4[C@H](C)CC[C@@H]1[C@@]24OO3 [dimer oxime]			11.4 µM		
C[C@H]1[C@@H](OCC(CO[C@H]2O[C@@H]3O[C@@]4(C)CC[C@H]5[C@H](C)CC[C@@H]([C@H]2C)[C@@]35OO4)N2CCOCC2)OC2O[C@@]3(C)CC[C@H]4[C@H](C)CC[C@@H]1[C@@]24OO3 (stereo partly drawn) [Dimer Morpholine]	0.007 µM	> 2056 and > 2052		time-dependent apoptotic effect	population in UR area of FL2/FL1 dot plot, 48 hrs compared to 24 hrs ([3]; 14 μM): significantly (P<0.0001) higher population; population in UR area of FL2/FL1 dot plot, 72 hrs compared to 24 hrs ([3]; 14 μM): significantly (P<0.0001) higher population; population in Upper Right (UR, late apoptosis) area of FL2 (PI)/FL1 (Annexin FITC) dot plot compared to control group ([3]; 14 μM, 24 hrs): significantly (P<0.0001) higher population; population in UR area of FL2/FL1 dot plot compared to control group ([3]; 14 μM, 48 hrs): significantly (P<0.0001) higher population; population in UR area of FL2/FL1 dot plot compared to control group ([3]; 14 μM, 72 hrs): significantly (P<0.0001) higher population
C[C@H]1[C@@H](OCC(CO[C@H]2O[C@@H]3O[C@@]4(C)CC[C@H]5[C@H](C)CC[C@@H]([C@H]2C)[C@@]35OO4)NCCc2c[nH]c3ccccc23)OC2O[C@@]3(C)CC[C@H]4[C@H](C)CC[C@@H]1[C@@]24OO3 (stereo partly drawn) [dimer tryptamine]			7.39 µM		

— US12156915B2, “Selected artemisinin dimers for the treatment of lashmaniasis” (priority 2020, dated 2024)
